Data from paper PMC11005723, “Development of Complementary Photo‐arginine/lysine to Promote Discovery of Arg/Lys hPTMs Interactomes” (Advanced Science, 2024).

System: HEK293T nuclear lysates
Experiment: SILAC‐based pull‐down proteomics H4K5me2/H4K5 (probes 7/5)
Assay type: binding, human
Conditions: for F6 log2 (H4K5me2/H4K5): run F6; for E6 log2 (H4K5me2/H4K5): run E6

Substance: probe 7: H4K5me2 peptide probe with photo‐arginine R(dz) and K(biotin) (SGRGKGGKGLGKGGK; photo-arginine R(dz) at 3; dimethyl-lysine at 5; K(biotin) at 15)
- F6 log2 (H4K5me2/H4K5) (protein Q5SY16 NOL9): 0.298
- E6 log2 (H4K5me2/H4K5) (protein Q5UIP0 RIF1): 0.1193
- F6 log2 (H4K5me2/H4K5) (protein Q5UIP0 RIF1): -0.04241
- E6 log2 (H4K5me2/H4K5) (protein Q5VZL5 ZMYM4): 0.09551
- F6 log2 (H4K5me2/H4K5) (protein Q5VZL5 ZMYM4): -0.04431
- E6 log2 (H4K5me2/H4K5) (protein Q8NFW8 CMAS): 0.141
- F6 log2 (H4K5me2/H4K5) (protein Q8NFW8 CMAS): 0.05465
- E6 log2 (H4K5me2/H4K5) (protein Q8WYA6 CTNNBL1): 0.1516
- F6 log2 (H4K5me2/H4K5) (protein Q8WYA6 CTNNBL1): 0.456
- E6 log2 (H4K5me2/H4K5) (protein Q9BRX2 PELO): 0.1716
- F6 log2 (H4K5me2/H4K5) (protein Q9BRX2 PELO): 0.4162
- E6 log2 (H4K5me2/H4K5) (protein Q9BUF5 TUBB6): 0.1331
- F6 log2 (H4K5me2/H4K5) (protein Q9BUF5 TUBB6): -0.5148
- E6 log2 (H4K5me2/H4K5) (protein Q9BVA1 TUBB2B): 0.166
- F6 log2 (H4K5me2/H4K5) (protein Q9BVA1 TUBB2B): -0.2469
- E6 log2 (H4K5me2/H4K5) (protein Q9BVJ6 UTP14A): 0.05903
- F6 log2 (H4K5me2/H4K5) (protein Q9BVJ6 UTP14A): -0.461
- E6 log2 (H4K5me2/H4K5) (protein Q9BW71 HIRIP3): 0.0877
- F6 log2 (H4K5me2/H4K5) (protein Q9BW71 HIRIP3): -0.01781
- E6 log2 (H4K5me2/H4K5) (protein Q9BXP5 SRRT): 0.141
- F6 log2 (H4K5me2/H4K5) (protein Q9BXP5 SRRT): 0.1118
- E6 log2 (H4K5me2/H4K5) (protein Q9H4L7 SMARCAD1): 0.1459
- F6 log2 (H4K5me2/H4K5) (protein Q9H4L7 SMARCAD1): 0.07323
- E6 log2 (H4K5me2/H4K5) (protein Q9H5H4 ZNF768): 0.1121
- F6 log2 (H4K5me2/H4K5) (protein Q9H5H4 ZNF768): 0.2152
- E6 log2 (H4K5me2/H4K5) (protein Q9NPJ6 MED4): 0.1455
- F6 log2 (H4K5me2/H4K5) (protein Q9NPJ6 MED4): 0.1113
- E6 log2 (H4K5me2/H4K5) (protein Q9NRL2 BAZ1A): 0.163
- F6 log2 (H4K5me2/H4K5) (protein Q9NRL2 BAZ1A): 0.1532
- E6 log2 (H4K5me2/H4K5) (protein Q9NX58 LYAR): 0.1556
- F6 log2 (H4K5me2/H4K5) (protein Q9NX58 LYAR): 0.3557
- E6 log2 (H4K5me2/H4K5) (protein Q9P013 CWC15): 0.1308
- F6 log2 (H4K5me2/H4K5) (protein Q9P013 CWC15): 0.1373
- E6 log2 (H4K5me2/H4K5) (protein Q9P258 RCC2): 0.1054
- F6 log2 (H4K5me2/H4K5) (protein Q9P258 RCC2): 0.04172
- E6 log2 (H4K5me2/H4K5) (protein Q9UFW8 CGGBP1): 0.1502
- F6 log2 (H4K5me2/H4K5) (protein Q9UFW8 CGGBP1): 0.1918
- E6 log2 (H4K5me2/H4K5) (protein Q9ULV4 CORO1C): 0.1506
- F6 log2 (H4K5me2/H4K5) (protein Q9ULV4 CORO1C): 0.2392
- E6 log2 (H4K5me2/H4K5) (protein Q9Y5Q8 GTF3C5): 0.07771
- F6 log2 (H4K5me2/H4K5) (protein Q9Y5Q8 GTF3C5): -0.06295
- E6 log2 (H4K5me2/H4K5) (protein Q9Y5Q9 GTF3C3): 0.06434
- F6 log2 (H4K5me2/H4K5) (protein Q9Y5Q9 GTF3C3): 0.04559
- E6 log2 (H4K5me2/H4K5) (protein Q9Y6G9 DYNC1LI1): 0.06739
- F6 log2 (H4K5me2/H4K5) (protein Q9Y6G9 DYNC1LI1): 0.07842
- E6 log2 (H4K5me2/H4K5) (protein Q9Y383 LUC7L2): 0.1112
- F6 log2 (H4K5me2/H4K5) (protein Q9Y383 LUC7L2): 0.1004
- E6 log2 (H4K5me2/H4K5) (protein Q69YN4 KIAA1429): 0.07633
- F6 log2 (H4K5me2/H4K5) (protein Q69YN4 KIAA1429): 1.095
- E6 log2 (H4K5me2/H4K5) (protein Q86UV5 USP48): 0.08539
- F6 log2 (H4K5me2/H4K5) (protein Q86UV5 USP48): 0.1516
- E6 log2 (H4K5me2/H4K5) (protein Q86VP6 CAND1): 0.1189
- F6 log2 (H4K5me2/H4K5) (protein Q86VP6 CAND1): 0.1916
- E6 log2 (H4K5me2/H4K5) (protein Q96I24 FUBP3): 0.09267
- F6 log2 (H4K5me2/H4K5) (protein Q96I24 FUBP3): 0.003553
- E6 log2 (H4K5me2/H4K5) (protein Q96RL1 UIMC1): 0.1095
- F6 log2 (H4K5me2/H4K5) (protein Q96RL1 UIMC1): 0.3246
- E6 log2 (H4K5me2/H4K5) (protein Q96SI9 STRBP): 0.1111
- F6 log2 (H4K5me2/H4K5) (protein Q96SI9 STRBP): -0.1086
- E6 log2 (H4K5me2/H4K5) (protein Q00839 HNRNPU): 0.1593
- F6 log2 (H4K5me2/H4K5) (protein Q00839 HNRNPU): 0.1015
- E6 log2 (H4K5me2/H4K5) (protein Q06265 EXOSC9): 0.08559
- F6 log2 (H4K5me2/H4K5) (protein Q06265 EXOSC9): 0.2199
- E6 log2 (H4K5me2/H4K5) (protein Q08211 DHX9): 0.1119
- F6 log2 (H4K5me2/H4K5) (protein Q08211 DHX9): 0.3522
- E6 log2 (H4K5me2/H4K5) (protein Q12888 TP53BP1): 0.1736
- F6 log2 (H4K5me2/H4K5) (protein Q12888 TP53BP1): 0.06404
- E6 log2 (H4K5me2/H4K5) (protein Q13409 DYNC1I2): 0.06369
- F6 log2 (H4K5me2/H4K5) (protein Q13409 DYNC1I2): -0.3262
- E6 log2 (H4K5me2/H4K5) (protein Q13838 DDX39B): 0.1273
- F6 log2 (H4K5me2/H4K5) (protein Q13838 DDX39B): 0.2575
- E6 log2 (H4K5me2/H4K5) (protein Q14247 CTTN): 0.1014
- F6 log2 (H4K5me2/H4K5) (protein Q14247 CTTN): -0.09702
- E6 log2 (H4K5me2/H4K5) (protein Q14498 RBM39): 0.177
- F6 log2 (H4K5me2/H4K5) (protein Q14498 RBM39): 0.352
- E6 log2 (H4K5me2/H4K5) (protein Q14683 SMC1A): 0.1403
- F6 log2 (H4K5me2/H4K5) (protein Q14683 SMC1A): 0.1731
- E6 log2 (H4K5me2/H4K5) (protein Q15007 WTAP): 0.1397
- F6 log2 (H4K5me2/H4K5) (protein Q15007 WTAP): 0.4766
- E6 log2 (H4K5me2/H4K5) (protein Q15029 EFTUD2): 0.07001
- F6 log2 (H4K5me2/H4K5) (protein Q15029 EFTUD2): 0.00906
- E6 log2 (H4K5me2/H4K5) (protein Q15181 PPA1): 0.1337
- F6 log2 (H4K5me2/H4K5) (protein Q15181 PPA1): 0.2844
- E6 log2 (H4K5me2/H4K5) (protein Q15366 PCBP2): 0.119
- F6 log2 (H4K5me2/H4K5) (protein Q15366 PCBP2): 0.02194
- E6 log2 (H4K5me2/H4K5) (protein Q15459 SF3A1): 0.09759
- F6 log2 (H4K5me2/H4K5) (protein Q15459 SF3A1): -0.03717
- E6 log2 (H4K5me2/H4K5) (protein Q15637 SF1): 0.06831
- F6 log2 (H4K5me2/H4K5) (protein Q15637 SF1): -0.04609
- E6 log2 (H4K5me2/H4K5) (protein Q15654 TRIP6): 0.1136
- F6 log2 (H4K5me2/H4K5) (protein Q15654 TRIP6): 0.7606
- E6 log2 (H4K5me2/H4K5) (protein Q16543 CDC37): 0.09946
- F6 log2 (H4K5me2/H4K5) (protein Q16543 CDC37): -0.01218
- E6 log2 (H4K5me2/H4K5) (protein Q92769 HDAC2): 0.1172
- F6 log2 (H4K5me2/H4K5) (protein Q92769 HDAC2): 0.07863
- E6 log2 (H4K5me2/H4K5) (protein Q92785 DPF2): 0.1557
- F6 log2 (H4K5me2/H4K5) (protein Q92785 DPF2): 0.235
- E6 log2 (H4K5me2/H4K5) (protein Q92945 KHSRP): 0.0526
- F6 log2 (H4K5me2/H4K5) (protein Q92945 KHSRP): 0.2777
- E6 log2 (H4K5me2/H4K5) (protein Q99459 CDC5L): 0.1274
- F6 log2 (H4K5me2/H4K5) (protein Q99459 CDC5L): -0.0666
